Measured values: US4820695A, “C-20-dihydro-deoxy-(cyclic amino)-derivatives of macrolide antibiotics” (priority 1987, dated 1989)
In brackets after ≈: the same amount, converted by molar mass. Where two headings read alike, the source gives them in different places.

Tests used:
Pasteurella multocida [1] = test: Pasteurella infection in one-day-old chicks, medicated drinking water (Table XIII); assay type: in vivo; conditions: Administered in the available drinking water at 2 g/gal
Experimental: (§1) Many of the C-20 modified derivatives of this invention have also shown in vivo antibacterial activity against infections induced by gram-negative bacteria. Tables XII and XIII summarize the results of tests in which illustrative compounds were evaluated against a Pasteurella infection in one-day-old chicks. The compounds were administered parenterally or orally after challenge of the chicks with Pasteurella multocida (0.1 ml of a 10^-4 dilution of a twenty-hour tryptose broth culture of an avian P. multocida given subcutaneously). In these tests, unless indicated otherwise, all non-medicated infected chicks died within 24 hours of Pasteurella challenge. In the tests summarized in Table XII, the compounds were administered by subcutaneous injection at a dosage of 30 mg/kg, 1 and 4 hours post-challenge of the chicks with P. multocida. In the tests summarized in Table XIII the compounds were administered in medicated drinking water (at a level of 2 g/gal) available from 4 to 20 hours prior to challenge of the chicks with P. multocida and during the 3 -day test period.
^a Administered in the available drinking water at a concentration of […]

[2] = test system: Staphylococcus aureus V41; test: MIC, standard agar-dilution assay (Table IX); assay type: cell-based; conditions: Staphylococcus aureus V41, Penicillin-resistant strain
Klebsiella X26 = test: MIC, standard agar-dilution assay (Table IX); assay type: cell-based
[3] = test system: Staphylococcus aureus S13E; test: MIC, standard agar-dilution assay (Table IX); assay type: cell-based
[4] = test system: Haemophilus influenzae 76; test: MIC, standard agar-dilution assay (Table IX); assay type: cell-based; conditions: Haemophilus influenzae 76, Ampicillin-resistant strain
Escherichia coli N10 = test: MIC, standard agar-dilution assay (Table IX); assay type: cell-based
Escherichia coli TEM = test: MIC, standard agar-dilution assay (Table IX); assay type: cell-based
[5] = test system: Streptococcus Group D 2041; test: MIC, standard agar-dilution assay (Table IX); assay type: cell-based
[6] = test system: Staphylococcus epidermidis EPI1; test: MIC, standard agar-dilution assay (Table IX); assay type: cell-based; conditions: Staphylococcus epidermidis EPI1, agar-dilution
Pasteurella multocida [7] = test: Pasteurella infection in one-day-old chicks, subcutaneous administration (Table XII); assay type: in vivo; conditions: Administered subcutaneously, 30 mg/kg × 2, 1 and 4 hours post-challenge
Experimental: as §1
^a Administered subcutaneously; 30 mg/kg × 2

[8] = test system: Staphylococcus epidermidis 222; test: MIC, standard agar-dilution assay (Table IX); assay type: cell-based
[9] = Titratable groups in 66% aqueous DMF (Tables XIV-XVI); assay type: physicochemical
Source text: ^c Run in 66% aqueous DMF
^d Run in 66% aqueous DMF

[10] = test system: Haemophilus influenzae C.L.; test: MIC, standard agar-dilution assay (Table IX); assay type: cell-based; conditions: Ampicillin-sensitive strain
[11] = test system: Mycoplasma hyopneumoniae S5972; test: MIC, broth-dilution microtiter test (Table X); assay type: cell-based
Source text: (§2) The MIC's in Table X were obtained using conventional broth-dilution microtiter tests.

[12] = test system: Pasteurella multocida 17E; test: MIC, broth-dilution microtiter test (Table X); assay type: cell-based; conditions: Bovine isolate
Source text: as §2

Mycoplasma synoviae 40A = test: MIC, broth-dilution microtiter test (Table X); assay type: cell-based
Source text: as §2

[13] = test system: Mycoplasma gallisepticum 29C; test: MIC, broth-dilution microtiter test (Table X); assay type: cell-based
Source text: as §2

Staphylococcus aureus = test: MIC, broth-dilution microtiter test (Table X); assay type: cell-based
Source text: as §2

[14] = test system: Pasteurella hemolytica 22C; test: MIC, broth-dilution microtiter test (Table X); assay type: cell-based
Source text: as §2

Mycoplasma hyorhinis 29E = test: MIC, broth-dilution microtiter test (Table X); assay type: cell-based
Source text: as §2

[15] = test system: Pasteurella multocida 60A; test: MIC, broth-dilution microtiter test (Table X); assay type: cell-based; conditions: Avian isolate
Source text: as §2

Streptococcus sp. 19F = test: MIC, broth-dilution microtiter test (Table X); assay type: cell-based
Source text: as §2

Staphyloccus aureus X1.1 = test: MIC, standard agar-dilution assay (Table IX); assay type: cell-based, Staphylococcus aureus
[16] = test system: Streptococcus pneumoniae Park I; test: MIC, standard agar-dilution assay (Table IX); assay type: cell-based; conditions: Streptococcus pneumoniae Park I, agar-dilution
[17] = test system: Streptococcus pyogenes C203; test: MIC, standard agar-dilution assay (Table IX); assay type: cell-based
[18] = test system: Staphylococcus aureus X400; test: MIC, standard agar-dilution assay (Table IX); assay type: cell-based; conditions: Staphylococcus aureus X400, Methicillin-resistant strain
Escherichia coli EC14 = test: MIC, standard agar-dilution assay (Table IX); assay type: cell-based
[19] = test system: Streptococcus Group D X66; test: MIC, standard agar-dilution assay (Table IX); assay type: cell-based
[20] = test system: Streptococcus pyogenes C203; test: ED50 in mice experimentally infected with S. pyogenes C203 (Table XI); assay type: in vivo; conditions: Streptococcus pyogenes, doses given 1 and 4 hours postinfection, read-out: ED50
Summary of the method: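 Mice infected with S. pyogenes C203 received two doses of compound, 1 and 4 h post-infection. ED50 is the dose in mg/kg (per dose, ×2) protecting 50% of animals.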

[21] = Mesomycoplasma hyopneumoniae, read-out: MIC
[22] = Mycoplasmopsis synoviae, read-out: MIC
[23] = Mycoplasmoides gallisepticum, read-out: MIC
[24] = Staphylococcus aureus, read-out: MIC

Structure (SMILES): CCC1OC(=O)CC(O)C(C)C(OC2OC(C)C(O)C(N(C)C)C2O)C(CCN2CCC(C)CC(C)(C)C2)CC(C)C(=O)C=CC(C)=CC1COC1OC(C)C(O)C(OC)C1OC (single isomer, unassigned) [Compound D23, 20-DH-DO-20-(3,3,5-Trimethylhexahydroazepin-1-yl)desmycosin]
- Number of Deaths/Number Treated (Pasteurella multocida [1]): 4/10
- MIC [2]: 0.5 µg/mL (≈ 0.557 µM)
- MIC (Klebsiella X26): 128 µg/mL (≈ 143 µM)
- MIC ([3]; Staphylococcus aureus S13E, agar-dilution): 0.5 µg/mL (≈ 0.557 µM)
- MIC [4]: 8 µg/mL (≈ 8.92 µM)
- MIC (Escherichia coli N10): 64 µg/mL (≈ 71.3 µM)
- MIC (Escherichia coli TEM): 32 µg/mL (≈ 35.7 µM)
- MIC [5]: 8 µg/mL (≈ 8.92 µM)
- MIC [6]: 0.5 µg/mL (≈ 0.557 µM)
- Number of Deaths/Number Treated (Pasteurella multocida [7]): 8/10
- MIC [8]: 0.5 µg/mL (≈ 0.557 µM)
- Titratable groups [9]: 9.0
- Titratable groups (first value) [9]: 7.7
- MIC [10]: 16 µg/mL (≈ 17.8 µM)
- MIC [11]: 0.78 µg/mL (≈ 0.869 µM)
- MIC [12]: 6.25 µg/mL (≈ 6.97 µM)
- MIC (Mycoplasma synoviae 40A): 0.097 µg/mL (≈ 0.108 µM)
- MIC [13]: 0.097 µg/mL (≈ 0.108 µM)
- MIC (Staphylococcus aureus): 3.12 µg/mL (≈ 3.48 µM)
- MIC [14]: 3.12 µg/mL (≈ 3.48 µM)
- MIC (Mycoplasma hyorhinis 29E): 6.25 µg/mL (≈ 6.97 µM)
- MIC [15]: 12.5 µg/mL (≈ 13.9 µM)
- MIC (Streptococcus sp. 19F): 1.56 µg/mL (≈ 1.74 µM)
- MIC (Staphyloccus aureus X1.1): 0.5 µg/mL (≈ 0.557 µM)
- MIC [16]: 0.5 µg/mL (≈ 0.557 µM)
- MIC [17]: 0.5 µg/mL (≈ 0.557 µM)
- MIC [18]: 1 µg/mL (≈ 1.11 µM)
- MIC (Escherichia coli EC14): 64 µg/mL (≈ 71.3 µM)
- MIC [19]: 4 µg/mL (≈ 4.46 µM)

Structure (SMILES): CCC1OC(=O)CC(O)C(C)C(OC2OC(C)C(O)C(N(C)C)C2O)C(CCN2CCCc3ccccc32)CC(C)C(=O)C=CC(C)=CC1COC1OC(C)C(O)C(OC)C1OC (stereo not drawn) [Compound D11, 20-DH-DO-20-(1,2,3,4-Tetrahydroquinolin-1-yl)desmycosin]
- Number of Deaths/Number Treated (Pasteurella multocida [1]): 8/10
- MIC ([2]; read-out: MIC): 0.5 µg/mL (≈ 0.562 µM)
- MIC (Klebsiella X26; read-out: MIC): > 128 µg/mL
- ED50 ([20]; C203, Oral): 19 mg/kg
- ED50 ([20]; C203, sc, Subcutaneous): 7.5 mg/kg
- MIC ([3]; Staphylococcus aureus, S13E): 0.5 µg/mL (≈ 0.562 µM)
- MIC ([4]; read-out: MIC): 8 µg/mL (≈ 9 µM)
- MIC (Escherichia coli N10; read-out: MIC): > 128 µg/mL
- MIC (Escherichia coli TEM; read-out: MIC): > 128 µg/mL
- MIC ([5]; GROUPD2041, read-out: MIC): 8 µg/mL (≈ 9 µM)
- MIC ([6]; read-out: MIC): 0.5 µg/mL (≈ 0.562 µM)
- Number of Deaths/Number Treated (Pasteurella multocida [7]): 10/10
- MIC ([8]; read-out: MIC): 0.25 µg/mL (≈ 0.281 µM)
- MIC ([10]; read-out: MIC): 64 µg/mL (≈ 72 µM)
- MIC [11, 21]: 1.56 µg/mL (≈ 1.75 µM)
- MIC ([12]; read-out: MIC): 12.5 µg/mL (≈ 14.1 µM)
- MIC (Mycoplasma synoviae 40A; [22]): 0.78 µg/mL (≈ 0.877 µM)
- MIC [13, 23]: ≤ 0.048 µg/mL
- MIC (Staphylococcus aureus; read-out: MIC): 1.56 µg/mL (≈ 1.75 µM)
- MIC ([14]; read-out: MIC): 25 µg/mL (≈ 28.1 µM)
- MIC (Mycoplasma hyorhinis 29E; read-out: MIC): 6.25 µg/mL (≈ 7.03 µM)
- MIC ([15]; read-out: MIC): 50 µg/mL (≈ 56.2 µM)
- MIC (Streptococcus sp. 19F; read-out: MIC): 3.12 µg/mL (≈ 3.51 µM)
- MIC (Staphyloccus aureus X1.1; [24]): 0.5 µg/mL (≈ 0.562 µM)
- MIC ([16]; read-out: MIC): 2 µg/mL (≈ 2.25 µM)
- MIC ([17]; read-out: MIC): 0.5 µg/mL (≈ 0.562 µM)
- MIC ([18]; read-out: MIC): 0.5 µg/mL (≈ 0.562 µM)
- MIC (Escherichia coli EC14; read-out: MIC): > 128 µg/mL
- MIC ([19]; read-out: MIC): 8 µg/mL (≈ 9 µM)

Structure (SMILES): CCC1OC(=O)CC(O)C(C)C(OC2OC(C)C(O)C(N(C)C)C2O)C(CCN2CCc3ccccc3C2)CC(C)C(=O)C=CC(C)=CC1COC1OC(C)C(O)C(OC)C1OC (stereo not drawn) [Compound D12, 20-DH-DO-20-(1,2,3,4-Tetrahydroisoquinolin-2-yl)desmycosin]
- Number of Deaths/Number Treated (Pasteurella multocida [1]): 8/10
- MIC ([2]; read-out: MIC): 0.5 µg/mL (≈ 0.562 µM)
- MIC (Klebsiella X26; read-out: MIC): 32 µg/mL (≈ 36 µM)
- ED50 ([20]; C203, Oral): < 6.3 mg/kg
- ED50 ([20]; C203, sc, Subcutaneous): 2 mg/kg
- MIC ([3]; Staphylococcus aureus, S13E): 0.5 µg/mL (≈ 0.562 µM)
- MIC ([4]; read-out: MIC): 8 µg/mL (≈ 9 µM)
- MIC (Escherichia coli N10; read-out: MIC): > 128 µg/mL
- MIC (Escherichia coli TEM; read-out: MIC): 64 µg/mL (≈ 72 µM)
- MIC ([5]; GROUPD2041, read-out: MIC): 8 µg/mL (≈ 9 µM)
- MIC ([6]; read-out: MIC): 0.5 µg/mL (≈ 0.562 µM)
- Number of Deaths/Number Treated (Pasteurella multocida [7]): 9/10
- MIC ([8]; read-out: MIC): 0.25 µg/mL (≈ 0.281 µM)
- MIC ([10]; read-out: MIC): 16 µg/mL (≈ 18 µM)
- MIC [11, 21]: 3.12 µg/mL (≈ 3.51 µM)
- MIC ([12]; read-out: MIC): 6.25 µg/mL (≈ 7.03 µM)
- MIC (Mycoplasma synoviae 40A; [22]): 0.39 µg/mL (≈ 0.439 µM)
- MIC [13, 23]: ≤ 0.048 µg/mL
- MIC (Staphylococcus aureus; read-out: MIC): 1.56 µg/mL (≈ 1.75 µM)
- MIC ([14]; read-out: MIC): 3.12 µg/mL (≈ 3.51 µM)
- MIC (Mycoplasma hyorhinis 29E; read-out: MIC): 12.5 µg/mL (≈ 14.1 µM)
- MIC ([15]; read-out: MIC): 12.5 µg/mL (≈ 14.1 µM)
- MIC (Streptococcus sp. 19F; read-out: MIC): 3.12 µg/mL (≈ 3.51 µM)
- MIC (Staphyloccus aureus X1.1; [24]): 0.5 µg/mL (≈ 0.562 µM)
- MIC ([16]; read-out: MIC): 1 µg/mL (≈ 1.12 µM)
- MIC ([17]; read-out: MIC): 0.5 µg/mL (≈ 0.562 µM)
- MIC ([18]; read-out: MIC): 0.5 µg/mL (≈ 0.562 µM)
- MIC (Escherichia coli EC14; read-out: MIC): 128 µg/mL (≈ 144 µM)
- MIC ([19]; read-out: MIC): 4 µg/mL (≈ 4.5 µM)
